Experimental data: US20100321430A1, “INK COMPOSITION FOR INK JET RECORDING” (priority 2009, published 2010)

Assay: Solubility of 1,2-octanediol in aqueous solution containing an alcohol solvent
Type: physicochemical
Conditions: for ability to dissolve 1,2-octanediol compared with HED: aqueous solution containing 10% by weight 1,2-octanediol and 10% by weight 1,2-hexanediol, FIGURE
Experimental: An aqueous solution containing 10% by weight of 1,2-octanediol, which is a water-insoluble alkanediol, was prepared. […] Therefore, the aqueous solution was cloudy.
Five alcohol solvents were each added to 10 g of the aqueous solution until the aqueous solution became transparent. The five alcohol solvents were 1,6-hexanediol (hereinafter referred to as 1,6-HED), 3-methyl-1,5-pentanediol (hereinafter referred to as 3 MPED), 1,5-pentanediol (hereinafter referred to as 1,5-PED), 1,2-hexanediol (hereinafter referred to as HED), and 2,2′-dimethylpropanediol (hereinafter referred to as 2 MPRD).
Another aqueous solution containing 10% by weight of 1,2-octanediol and 10% by weight of 1,2-hexanediol, which is a water-soluble alkanediol, was prepared. The five alcohol solvents were added to this aqueous solution in the same manner as described above until this aqueous solution became transparent.

CCCCCCC(O)CO (centres unmarked) [1,2-octanediol]
solubility in water (aqueous solution containing 10% by weight): not completely dissolved

OCCCCCO [1,5-PED, 1,5-pentanediol]
ability to dissolve 1,2-octanediol compared with HED: more capable of dissolving 1,2-octanediol

OCCCCCCO [1,6-HED, 1,6-hexanediol]
ability to dissolve 1,2-octanediol compared with HED: more capable of dissolving 1,2-octanediol

CC(C)(CO)CO [2 MPRD, 2,2′-dimethylpropanediol]
ability to dissolve 1,2-octanediol compared with HED: more capable of dissolving 1,2-octanediol

CC(CCO)CCO [3 MPED, 3-methyl-1,5-pentanediol]
ability to dissolve 1,2-octanediol compared with HED: more capable of dissolving 1,2-octanediol
